Results from ChEMBL document CHEMBL1201862, “PubChem BioAssay data set” (2004).
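Method: 48-hour compound exposure of cells in 96-well plates, five concentrations, linear interpolation of endpoints. The concentration for 50% growth inhibition is given as GI50.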 Calls of active or inactive are those of the source. Rule as the data show it: active = GI50 up to about 1.1 µM and inactive = higher.

Legend:
Test in all cases: inhibition of tumour cell growth, NCI panel, 48 h
SK-MEL-2 = tested on: SK-MEL-2
Hs-578T = tested on: Hs-578T
SK-MEL-28 = tested on: SK-MEL-28
CCRF-CEM = tested on: CCRF-CEM
OVCAR-4 = tested on: OVCAR-4
LOX IMVI = tested on: LOX IMVI
MOLT-4 = tested on: MOLT-4
SNB-19 = tested on: SNB-19
MDA-N = tested on: MDA-N
K562 = tested on: K562
M14 = tested on: M14
NCI-H226 = tested on: NCI-H226
OVCAR-5 = tested on: OVCAR-5
UO-31 = tested on: UO-31
HT-29 = tested on: HT-29
SF-539 = tested on: SF-539
SR = tested on: SR
HCC 2998 = tested on: HCC 2998
UACC-257 = tested on: UACC-257
A498 = tested on: A498

SMILES | GI50 (SK-MEL-2) | GI50 (Hs-578T) | GI50 (SK-MEL-28) | GI50 (CCRF-CEM) | GI50 (OVCAR-4) | GI50 (LOX IMVI) | GI50 (MOLT-4) | GI50 (SNB-19) | GI50 (MDA-N) | GI50 (K562) | GI50 (M14) | GI50 (NCI-H226) | GI50 (OVCAR-5) | GI50 (UO-31) | GI50 (HT-29) | GI50 (SF-539) | GI50 (SR) | GI50 (HCC 2998) | GI50 (UACC-257) | GI50 (A498)
O=[N+]([O-])C(/C=C(\Cl)n1nnc2ccccc21)=C(/Cl)n1nnc2ccccc21 | > 100 µM (inactive) | > 100 µM (inactive) | > 100 µM (inactive) | 76.4 µM (inactive) | > 100 µM (inactive) | > 100 µM (inactive) | > 100 µM (inactive) | > 100 µM (inactive) | > 100 µM (inactive) | > 100 µM (inactive) | > 100 µM (inactive) | > 100 µM (inactive) | > 100 µM (inactive) | > 100 µM (inactive) | > 100 µM (inactive) | > 100 µM (inactive) | > 100 µM (inactive) | > 100 µM (inactive) | > 100 µM (inactive) | > 100 µM (inactive)
CC(C)(C)C1CCC2(CC1)CCN(CCCN1CCOCC1)CC2 | 20 µM (inactive) | 35 µM (inactive) | 16.9 µM (inactive) | 25.4 µM (inactive) | > 93.8 µM (inactive) | 18.9 µM (inactive) | 24.5 µM (inactive) | > 71.4 µM (inactive) | 28.8 µM (inactive) | 8.51 µM (inactive) | 12.2 µM (inactive) | > 95.7 µM (inactive) | > 60 µM (inactive) | 48.3 µM (inactive) | 6.5 µM (inactive) | 18.7 µM (inactive) | 27.1 µM (inactive) | 16.9 µM (inactive) | 11.9 µM (inactive) | 34.7 µM (inactive)
O=C(Nc1ccc(Cl)c(Cl)c1)C(=O)C(C1OC(=O)c2ccccc21)[N+](=O)[O-] (stereo not given) | > 100 µM (inactive) | > 100 µM (inactive) | > 100 µM (inactive) | > 100 µM (inactive) | > 100 µM (inactive) | > 100 µM (inactive) | > 100 µM (inactive) | > 100 µM (inactive) | > 100 µM (inactive) |  | > 100 µM (inactive) | > 100 µM (inactive) | > 100 µM (inactive) | > 100 µM (inactive) | > 100 µM (inactive) | > 100 µM (inactive) | > 100 µM (inactive) | > 100 µM (inactive) | > 100 µM (inactive) | > 100 µM (inactive)
Cn1c(CO)ccc1-c1ccc(-c2ccc[se]2)[se]1 | 41.1 µM (inactive) | 55 µM (inactive) | > 49.5 µM (inactive) | 23.1 µM (inactive) | 0.043 µM (active) | 47.9 µM (inactive) | 19.6 µM (inactive) | 30.7 µM (inactive) | 15.5 µM (inactive) | 0.449 µM (active) | 42.9 µM (inactive) | 0.244 µM (active) |  | > 87.1 µM (inactive) | 31.7 µM (inactive) | 17.3 µM (inactive) | 30.3 µM (inactive) | 0.798 µM (active) |  | 0.0349 µM (active)
O=C(c1ccc(Cl)c(Cl)c1)N(Cc1cccnc1)C(=S)N(Cc1cccnc1)C(=O)c1ccc(Cl)c(Cl)c1 | 25.1 µM (inactive) | 40.6 µM (inactive) | 52.5 µM (inactive) | 94 µM (inactive) | 25.8 µM (inactive) | 30.7 µM (inactive) | 37.3 µM (inactive) | 27.9 µM (inactive) | 23.9 µM (inactive) | 30.3 µM (inactive) | 21.2 µM (inactive) | 31.8 µM (inactive) | 29.2 µM (inactive) | 17.9 µM (inactive) | 24 µM (inactive) | 22.1 µM (inactive) | 17.5 µM (inactive) | 20.5 µM (inactive) | 24.9 µM (inactive) | 33.9 µM (inactive)
O=c1[nH]nc(-c2ccc3ccccc3c2)[nH]1 | > 100 µM (inactive) | 2.81 µM (inactive) | > 100 µM (inactive) | > 100 µM (inactive) | > 100 µM (inactive) | > 100 µM (inactive) | > 100 µM (inactive) | > 100 µM (inactive) | > 100 µM (inactive) | > 100 µM (inactive) | > 100 µM (inactive) | > 100 µM (inactive) | > 100 µM (inactive) | 43.3 µM (inactive) | > 100 µM (inactive) | > 100 µM (inactive) | 45.1 µM (inactive) | > 100 µM (inactive) | > 100 µM (inactive) | 80 µM (inactive)
OC(CCN1CCN(CCOC(c2ccc(F)cc2)c2ccc(F)cc2)CC1)c1ccc(Br)cc1 (stereo not given) | 5.36 µM (inactive) | 4.89 µM (inactive) | 2.69 µM (inactive) | 2.77 µM (inactive) | 4.01 µM (inactive) | 2.04 µM (inactive) | 2.4 µM (inactive) | 7.6 µM (inactive) | 2.61 µM (inactive) | 2.45 µM (inactive) | 1.96 µM (inactive) | 5.7 µM (inactive) | 15.5 µM (inactive) | 2.22 µM (inactive) | 3.32 µM (inactive) | 2.3 µM (inactive) | 2.34 µM (inactive) | 1.97 µM (inactive) | 1.96 µM (inactive) | 2.12 µM (inactive)
CCn1sc2ccccc2c1=O | 21.7 µM (inactive) | 16.4 µM (inactive) | 18.1 µM (inactive) | 1.87 µM (inactive) | 7.1 µM (inactive) | 2.61 µM (inactive) | 3.78 µM (inactive) | 11.3 µM (inactive) | 4.05 µM (inactive) | 4.58 µM (inactive) | 4.97 µM (inactive) | 24.1 µM (inactive) | 9.1 µM (inactive) |  | 14.4 µM (inactive) | 13.5 µM (inactive) | 1.95 µM (inactive) | 17.4 µM (inactive) | 14.8 µM (inactive) | 37.8 µM (inactive)
C#C[C@]1(O)CC[C@H]2[C@@H]3CCC4=C/C(=N/OC(=O)c5cccc6cc7ccccc7nc56)CC[C@@H]4[C@H]3CC[C@@]21CC | > 100 µM (inactive) | > 100 µM (inactive) | > 100 µM (inactive) | 52.2 µM (inactive) | > 100 µM (inactive) | > 100 µM (inactive) | > 100 µM (inactive) | > 100 µM (inactive) | > 100 µM (inactive) | > 100 µM (inactive) | > 100 µM (inactive) | > 100 µM (inactive) | > 100 µM (inactive) |  | > 100 µM (inactive) | > 100 µM (inactive) | 44.4 µM (inactive) | > 100 µM (inactive) | > 100 µM (inactive) | > 100 µM (inactive)
CCOC(=O)C(=CNC(=S)N/N=C1\C(=O)Nc2ccccc21)C(=O)OCC | > 100 µM (inactive) | 48.2 µM (inactive) | > 100 µM (inactive) | 41.9 µM (inactive) | > 100 µM (inactive) | > 100 µM (inactive) | 84.7 µM (inactive) | > 100 µM (inactive) | > 100 µM (inactive) | > 100 µM (inactive) | > 100 µM (inactive) | > 100 µM (inactive) | > 100 µM (inactive) | 29 µM (inactive) | 84.3 µM (inactive) | > 100 µM (inactive) | 69.3 µM (inactive) | > 100 µM (inactive) | > 100 µM (inactive) | 41.9 µM (inactive)
